Results taken from ChEMBL document CHEMBL1140196, “Synthesis and biological activities of some new fluorinated coumarins and 1-aza coumarins” (Eur J Med Chem, 2008).
The source made the active and inactive calls. The calls are words filed in the database; no cut-off is given here.

Columns and labels:
Assay type in all cases: functional
Escherichia coli [1] = assay: Antibacterial activity against Escherichia coli at 100 ug/mL after 48 hrs by cup-plate method
Escherichia coli [2] = assay: Antibacterial activity against Escherichia coli at 50 ug/mL after 48 hrs by cup-plate method
Escherichia coli [3] = assay: Antibacterial activity against Escherichia coli at 25 ug/mL after 48 hrs by cup-plate method; details: for zone of inhibition at 25 µg/mL: read-out: IZ
Bacillus [4] = assay: Antibacterial activity against […] at 100 ug/mL after 48 hrs by cup-plate method
Bacillus [5] = assay: Antibacterial activity against […] at 50 ug/mL after 48 hrs by cup-plate method
Bacillus [6] = assay: Antibacterial activity against […] at 25 ug/mL after 48 hrs by cup-plate method; details: for zone of inhibition at 25 µg/mL: read-out: IZ
Aspergillus niger [7] = assay: Antifungal activity against Aspergillus niger at 100 ug/mL after 48 hrs by cup-plate method
Aspergillus niger [8] = assay: Antifungal activity against Aspergillus niger at 50 ug/mL after 48 hrs by cup-plate method
Aspergillus niger [9] = assay: Antifungal activity against Aspergillus niger at 25 ug/mL after 48 hrs by cup-plate method; details: for zone of inhibition at 25 µg/mL: read-out: IZ
Macrophomina phaseolina [10] = assay: Antifungal activity against Rhizoctonia bataticola at 100 ug/mL after 48 hrs by cup-plate method
Macrophomina phaseolina [11] = assay: Antifungal activity against Rhizoctonia bataticola at 50 ug/mL after 48 hrs by cup-plate method; details: for zone of inhibition at 50 µg/mL: read-out: IZ
Macrophomina phaseolina [12] = assay: Antifungal activity against Rhizoctonia bataticola at 25 ug/mL after 48 hrs by cup-plate method

Row | Compound | inhibition at 100 µg/mL (Escherichia coli [1]) | inhibition at 50 µg/mL (Escherichia coli [2]) | Activity (Escherichia coli [3]) | inhibition at 100 µg/mL (Bacillus [4]) | inhibition at 50 µg/mL (Bacillus [5]) | Activity (Bacillus [6]) | inhibition at 100 µg/mL (Aspergillus niger [7]) | inhibition at 50 µg/mL (Aspergillus niger [8]) | inhibition at 25 µg/mL (Aspergillus niger [9]) | zone of inhibition at 25 µg/mL (Aspergillus niger [9]) | inhibition at 100 µg/mL (Macrophomina phaseolina [10]) | inhibition at 50 µg/mL (Macrophomina phaseolina [11]) | zone of inhibition at 50 µg/mL (Macrophomina phaseolina [11]) | Activity (Macrophomina phaseolina [12]) | inhibition at 25 µg/mL (Escherichia coli [3]) | zone of inhibition at 25 µg/mL (Escherichia coli [3]) | inhibition at 25 µg/mL (Bacillus [6]) | zone of inhibition at 25 µg/mL (Bacillus [6]) | Activity (Aspergillus niger [9]) | inhibition at 25 µg/mL (Macrophomina phaseolina [12])
1 | O=c1cc(COc2ccc(Br)cc2)c2ccc(Cl)cc2[nH]1 | 50% | 30% | inactive | 60% | 26% | inactive | 60% | 35% | 18% | 46 mm | 54% | 31% | 80 mm | inactive |  |  |  |  |  | 
2 | Cc1ccc2c(CNc3ccc(Cl)cc3)cc(=O)oc2c1 | 62% | 36% |  | 60% | 34% |  | 52% | 21% |  |  | 54% | 32% | 84 mm | inactive | 17% | 44 mm | 17% | 44 mm | inactive | 
3 | O=c1cc(COc2ccc(Cl)cc2)c2ccc(Cl)cc2[nH]1 | 48% | 27% | inactive | 56% | 25% | inactive | 50% | 21% |  |  | 51% | 35% | 78 mm | inactive |  |  |  |  | inactive | 
4 | Cc1ccc2c(COc3ccc(F)cc3)cc(=O)oc2c1 | 62% | 37% |  | 64% | 37% |  | 52% | 21% |  |  | 53% | 30% | 80 mm | inactive | 17% | 44 mm | 21% | 50 mm | inactive | 
5 | Cc1ccc2c(COc3ccc(Br)cc3)cc(=O)oc2c1 | 66% | 37% |  | 63% | 37% |  | 52% | 22% |  |  | 57% | 32% | 84 mm | inactive | 20% | 48 mm | 20% | 48 mm | inactive | 
6 | O=c1cc(CNc2ccc(F)cc2)c2ccccc2[nH]1 | 57% | 34% | inactive | 68% | 36% | inactive | 63% | 41% | 24% | 54 mm | 60% | 36% | 90 mm |  |  |  |  |  |  | 21%
7 | O=c1cc(CNc2ccc(F)cc2)c2cc(Cl)ccc2o1 | 95% | 64% |  | 99% | 83% |  | 90% | 73% | 64% |  | 91% | 76% |  |  | 51% | 92 mm | 64% |  |  | 68%
